Values quoted from earlier work in patent US7135437B2, “Stable liquid pesticide compositions” (Monsanto Technology LLC, priority 2000, dated 2006).

Details: at 20° C.

Compound: O=C(O)CNCP(=O)([O-])O.[K+] [glyphosate potassium salt]
- solubility in pure water, glyphosate acid equivalent: about 44 % glyphosate acid equivalent (a.e.) by weight
- solubility in pure water (as salt): about 54 % by weight
